{"source": "patent US20160228444A1", "about": "“NUCLEOSIDE ANALOGS AND USES THEREOF” (Ramot at Tel-Aviv University Ltd., priority 2015, published 2016)", "key": {"[1]": {"test_system": "H9C2 cardiomyoblasts", "assay_type": "cell-based, rat", "description": "(§1) Cell viability by flow cytometry analysis (FACS) analysis was determined using the Mebcyto apoptosis kit (MBL-Japan). The cell lines 4T1, U251 (2×10^5 cells/well), astrocytes and the cardiomyoblastic cell line H9C2 (5×10^5 cells/well) were seeded in six-well plates. Following treatment they were trypsinized, washed with PBS, resuspended in […] of binding buffer and double-stained with annexin V-FITC and propidium iodide (PI) according to the manufacturer's instructions. The stained cells were subjected to FACS analyses (Calibur cytometer, Becton Dickinson) where 30,000 cells were allowed to flow for each determination point and the percentage of cells in each state (viability or death) was defined by their distribution in fluorescence dot-plots using WinMdi 2.8 software (Scripps Research Institute, La-Jolla, USA).\n(§2) The apoptotic effect of AN446, Dox and their combination was evaluated in U251 and 4T1 cancer cells, and in the non-cancerous rat cardiomyoblast cell line (H9C2) and in primary rat astrocytes, using procedures previously described for AN7 [Tarasenko et al., Invest New Drugs 2012, 30:130-143]."}, "[2]": {"test_system": "primary rat astrocytes", "assay_type": "cell-based", "conditions": "noncancerous cells; combination compared to Dox alone; FIG. 1C", "description": "as §1, §2"}, "[3]": {"test_system": "H9C2 cells", "test": "ROS production (DCF-DA, flow cytometry)", "assay_type": "cell-based, rat", "conditions": "FIG. 1D", "description": "(§3) ROS were measured in live cells by monitoring the oxidation of DCF-DA (a cell-permeable probe), which undergoes deacetylation by cellular esterases and fluoresces upon oxidation by ROS. U251 MG (2×10^5 cells/six-well plates), astrocytes or H9C2 (5×10^5 cells/six-well plates) were treated as specified, incubated with […] DCF-DA for 30 min at 37° C., washed with PBS and analyzed (10^4 cells) by flow cytometry using a 488 nm excitation beam (Calibur cytometer, Becton Dickinson). The percentage of cells stained positively for DCF was determined with CellQuest software (BD Biosciences, San Jose, Calif., USA).\n(§4) To gain insights into the mechanism of cell-type specific effects, ROS production in cancer cells and in non-cancer cells after treatment for 5-6 h with AN446, Dox and AN446+Dox, were assessed by staining the cells with the membrane-permeable fluorescent dye DCF-DA."}, "[4]": {"test_system": "astrocytes", "test": "ROS production (DCF-DA, flow cytometry)", "assay_type": "cell-based, rat", "conditions": "FIG. 1D", "description": "as §3, §4"}, "[5]": {"test_system": "U251 human glioblastoma xenograft", "test": "Glioblastoma xenograft model (survival, body weight, tumor volume, tumor weight, Ki-67)", "conditions": "for tumor volume of vehicle-treated group relative to treated group: from day 11, FIG. 3C", "method": "Xenograft of glioblastoma: 8- to 10-week-old male Hsd athymic FOXN (Harlan, Jerusalem, Israel) were inoculated sc in the flanks with 5×10^6 U251 cells. Tumor length (L) and width (W) were measured with a caliper twice weekly. Tumor volumes were calculated according to the formula: (L×W2)/2. When the tumor was established (volume of 50-100 mm^3) the mice were randomly divided into six groups treated with: vehicle control (saline); ip Dox 4 mg/kg once weekly; po AN446 25 mg/kg thrice a week; po AN7 50 mg/kg thrice a week; combination of AN446+Dox (4 mg/kg ip Dox once a week and 25 mg/kg po AN446 thrice a week); AN7+Dox (4 mg/kg ip Dox once a week and 50 mg/kg po AN7 thrice weekly). Untreated, non-bearing tumor naive mice were maintained under the same conditions. The experiment was terminated after 25 treatment days, the mice were sacrificed under CO2 and their tumors and hearts were removed, weighed and divided into parts dedicated for immunohistochemistry (IHC) and the rest were frozen (−80° C.) for Western blot and Quantitative PCR (qRT-PCR) analyses.\nInactivation of avidin-biotin nonspecific binding was prevented by a blocking kit, according to the manufacturer's protocol (Vector Laboratories). […] The secondary antibody was biotin conjugated goat anti-rabbit or anti-mouse IgG. Slides were then stained with the ABC peroxidase system, developed with diaminobenzidine (DAB) (Vector Laboratories) and counterstained with hematoxylin (Bio-Optica, Milano, Italy). The slides were examined using an Olympus BX 52 light microscope, and images were taken with an Olympus DP50 digital camera system.\nMice were implanted subcutaneously with U251 cells and when the tumors reached 50-100 mm^3 treatments were initiated. Survival was evaluated by the Kaplan-Meier end-product analysis, where treatment failure (the experimental end points) was a loss of ˜20% body weight, or a tumor volume of >1 cm^3."}, "[6]": {"test_system": "TNF-α", "test": "Serum TNF-α in U251 xenograft mice (ELISA)", "assay_type": "in vivo", "conditions": "co-administration with doxorubicin, FIG. 8C", "description": "AN446 was tested in vivo using a xenograft of glioblastoma (U251 cells) in mice."}, "[7]": {"test_system": "acetylated H3 histone in U251 glioblastoma cells", "test": "Histone H3 acetylation (Western blot), 24 hours", "assay_type": "cell-based, human", "conditions": "FIG. 12", "description": "The effects of the abovementioned HDAC inhibitors on histone acetylation were also compared. U251 and H9C2 cells were treated with the HDAC inhibitors for 24 hours (according to procedures described hereinabove with respect to FIGS. 9 and 10), and then subjected to Western blot analysis."}, "[8]": {"test_system": "bFGF", "test": "bFGF protein and mRNA in tumor and heart of xenograft mice (Western blot, qRT-PCR)", "assay_type": "in vivo", "conditions": "for expression of mouse bFGF protein in the heart: FIG. 4D; for expression of bFGF in tumors / bFGF mRNA in the tumor: tumor; for bFGF mRNA in the tumor: FIG. 6", "description": "Tumors and hearts of the mice were rapidly removed, frozen on dry ice and kept at −70° C. Tissue was then homogenized and RNA and proteins extracted using the NucleoSpin® RNA/Protein kit according to the manufacturer's protocol (Macherey-Nagel, GmbH & Co KG).\nTotal RNA ([…]) was primed by oligo dT and reverse-transcribed by Verso cDNA kit according to the manufacturer's protocol (Thermo Scientific). Analyses of qPCR were performed with Kapa Sybr® Fast (Kapa Biosystems) on a Step One Plus thermocycler (Applied Biosystems). The comparative threshold method was used to calculate the relative gene expression. Values were normalized against glyceraldehyde 3-phosphate dehydrogenase (GAPDH). Expression of the GAPDH mRNA in each individual sample was used to normalize the dataset. The sequences of the primers were as follows: […]\nProtein levels in the samples were determined with the BCA protein assay kit (Pierce). The samples were subjected to Western blot analyses. The expression of proteins was visualized using their specified primary antibodies followed by the secondary IgG IRDye® 680DX antibody. Each detected band was quantified using the Odyssey Infrared Imaging System (LI-COR Biosciences) and normalized to the level of actin. The fold increase of a specific protein was determined by the ratio of the band intensity obtained from treated and untreated samples.\nThe pro-angiogenic factors basic fibroblast growth factor (bFGF) and vascular endothelial growth factor (VEGF) are potent angiogenic stimulators. The expression of bFGF in the tumor and in the heart was evaluated by Western blot and qRT-PCR analyses and expression of VEGF by IHC."}, "[9]": {"test_system": "pH2AX in U251 cells", "test": "Phosphorylated H2AX (Western blot), 24 or 48 hours", "assay_type": "cell-based, human", "conditions": "FIG. 13A", "description": "The effects of the abovementioned HDAC inhibitors on DNA damage and repair were then assessed by evaluating changes in levels of phosphorylated histone H2AX (pH2AX), a marker of DNA double-strand breaks, and Rad51, a marker of homologous recombination-guided DNA repair of double-strand breaks [Nagathihalli & Nagaraju, Biochim Biophys Acta 2011, 1816:209-218; Rogakou et al., J Biol Chem 1998, 273:5858-5868].\nU251 and H9C2 cells were treated with the HDAC inhibitors for 24 or 48 hours, and then subjected to Western blot analysis."}, "[10]": {"test_system": "U251 glioblastoma cells", "test": "ROS production (DCF-DA, flow cytometry)", "assay_type": "cell-based, human", "conditions": "5-6 h treatment, FIG. 1D", "description": "as §3, §4"}}, "data": [{"smiles": "CCCC(CCC)C(=O)Nc1nc2c(ncn2COCCOC(=O)C(CCC)CCC)c(=O)[nH]1", "note": "[AN446, N-valproyl-9-(2-valproyloxy)ethoxymethyl-guanine]", "values": [{"measurement": "cell death in H9C2 cardiomyoblasts", "setting": "[1]; 24, 48 or 72 hours, each inhibitor at its U251 IC50, FIG. 10", "result": "did not induce significant cardiomyocyte cell death"}, {"measurement": "viability / mortality of H9C2 cells", "setting": "[1]; noncancerous cells, combination compared to Dox alone, FIG. 1C", "result": "did not substantially affect the viability"}, {"measurement": "viability / mortality of astrocytes", "setting": "[2]", "result": "did not substantially affect the viability"}, {"measurement": "ROS production and mortality in Dox-treated H9C2 cells", "setting": "[3]; added to 200 nM Dox", "result": "attenuated ROS production and mortality"}, {"measurement": "ROS production in H9C2 cells", "setting": "[3]; single agent", "result": "did not induce ROS production"}, {"measurement": "ROS production and mortality in Dox-treated astrocytes", "setting": "[4]; added to 200 nM Dox", "result": "attenuated ROS production and mortality"}, {"measurement": "ROS production in astrocytes", "setting": "[4]; single agent", "result": "did not induce ROS production"}, {"measurement": "survival of mice when added to Dox treatment", "setting": "[5]; added to Dox 4 mg/kg ip once a week, day 25, FIG. 3A", "result": 80, "unit": "%"}, {"measurement": "body weight loss when added to Dox treatment", "setting": "[5]; added to Dox 4 mg/kg, FIG. 3B", "result": "significant attenuation of body weight loss"}, {"measurement": "Ki-67 positive (proliferating) cells in tumors", "setting": "[5]; in combination with Dox, FIG. 3F", "result": "reduced the proliferating cells to a level significantly lower than any of the single drug treatments"}, {"measurement": "tumor volume of vehicle-treated group relative to treated group", "setting": "[5]; in combination with Dox", "result": 3, "unit": "fold"}, {"measurement": "Ki-67 positive cells in tumors", "setting": "[5]; single agent vs vehicle, FIGS. 3E, 3F", "result": "considerably more Ki-67 positive cells were detected in tumors of the vehicle-treated mice"}, {"measurement": "tumor volume of vehicle-treated group relative to treated group", "setting": "[5]; single agent", "result": 2, "unit": "fold"}, {"measurement": "survival of mice until end of experiment (day 25)", "setting": "[5]; single agent: AN446 25 mg/kg or AN7 50 mg/kg po thrice weekly, Dox 4 mg/kg ip once a week, FIG. 3A", "result": 100, "unit": "%"}, {"measurement": "doxorubicin-induced rise in serum levels of TNF-α", "setting": "[6]", "result": "prevented a doxorubicin-induced rise in serum levels of TNF-α"}, {"measurement": "histone acetylation in U251 cancer cells", "setting": "[7]", "result": "increased histone acetylation considerably"}, {"measurement": "expression of mouse bFGF protein in the heart", "setting": "[8]; co-treatment with Dox", "result": "significantly increased its expression to a level higher than that observed in naive or vehicle-treated mice"}, {"measurement": "expression of mouse bFGF protein in the heart", "setting": "[8]; single agent", "result": "unchanged"}, {"measurement": "expression of bFGF in tumors", "setting": "[8]; combination with Dox", "result": "further diminished"}, {"measurement": "bFGF mRNA in the tumor", "setting": "[8]; combined treatment with Dox", "result": "suppressed it significantly further"}, {"measurement": "bFGF mRNA in the tumor", "setting": "[8]; single agent", "result": "significantly reduced the bFGF mRNA"}, {"measurement": "expression of bFGF in tumors", "setting": "[8]; single agent, FIGS. 4A, 4B", "result": "decreased significantly"}, {"measurement": "pH2AX levels in U251 cancer cells", "setting": "[9]", "result": "considerably more effective than the other HDAC inhibitors at increasing pH2AX levels after 48 hours"}, {"measurement": "percentage of ROS positive U251 cells", "setting": "[10]", "result": "increased the percentage of ROS positive U251 glioblastoma cells significantly more than Dox"}]}]}
